Measured values published in patent US5304367A, “In vivo brain imaging agent and method for diagnosis of psychiatric disorders” (New York University, priority 1990, dated 1994).

Tests used:
[1] = whole body distribution, mice, 2 μCi; type: in vivo, mouse
Description: In a subsequent study, whole body distribution was examined in mice following tail vein injection of 2 μCi ^125 I-iodopindolol. Animals were sacrificed at various time points up to 22 hours post-injection. Percent injected dose (%ID) was determined in 11 organs, blood and urine. At one minute, lungs contained the highest %ID (17%), heart 3-4 %ID and brain 0.3%ID.

βAR = experiment: quantitative autoradiography, age dependence of βAR distribution in the human brain; type: binding

CC(C)NCC(O)COc1cccc2[nH]cc([125I])c12 (stereo not drawn) [^125 I-iodopindolol]
radioactivity in all organs ([1]; between 2-4 hours post-injection): fell in all organs
brain, percent injected dose (%ID) ([1]; one minute, 2 μCi tail vein): 0.3 %ID
heart, percent injected dose (%ID) ([1]; one minute, 2 μCi tail vein): 3-4 %ID
lungs, percent injected dose (%ID) ([1]; one minute, 2 μCi tail vein): 17 %ID
brain levels, time course ([1]; until two hours post-injection): remained stable until two hours post-injection
lung radioactivity ([1]; until two hours post-injection): declined
stomach and intestine radioactivity ([1]; until two hours post-injection): increased
specifically bound (βAR; caudate nucleus, head, male, N=5): 1.45 ± 0.34 fmol [^125 I]iodopindolol/mg tissue
specifically bound (βAR; caudate nucleus, tail, female, N=8): 1.15 ± 0.17 fmol [^125 I]iodopindolol/mg tissue
specifically bound (βAR; caudate nucleus, tail, male, N=14): 1.39 ± 0.23 fmol [^125 I]iodopindolol/mg tissue
specifically bound (βAR; claustrum, female, N=5): 0.64 ± 0.18 fmol [^125 I]iodopindolol/mg tissue
specifically bound (βAR; claustrum, male, N=9): 0.86 ± 0.14 fmol [^125 I]iodopindolol/mg tissue
specifically bound (βAR; entorhinal cortex, female, N=3): 0.94 ± 0.33 fmol [^125 I]iodopindolol/mg tissue
specifically bound (βAR; entorhinal cortex, male, N=10): 1.00 ± 0.19 fmol [^125 I]iodopindolol/mg tissue
specifically bound (βAR; globus pallidus, lateral, female, N=5): 0.78 ± 0.16 fmol [^125 I]iodopindolol/mg tissue
specifically bound (βAR; globus pallidus, lateral, male, N=8): 0.85 ± 0.20 fmol [^125 I]iodopindolol/mg tissue
specifically bound (βAR; globus pallidus, medial, female, N=3): 0.44 ± 0.09 fmol [^125 I]iodopindolol/mg tissue
specifically bound (βAR; globus pallidus, medial, male, N=8): 0.73 ± 0.17 fmol [^125 I]iodopindolol/mg tissue
specifically bound (βAR; hippocampus, CA fields, molecular layer, female, N=4): 1.70 ± 0.40 fmol [^125 I]iodopindolol/mg tissue
specifically bound (βAR; hippocampus, CA fields, molecular layer, male, N=13): 1.74 ± 0.26 fmol [^125 I]iodopindolol/mg tissue
specifically bound (βAR; hippocampus, CA fields, pyramidal layer, female, N=4): 1.70 ± 0.26 fmol [^125 I]iodopindolol/mg tissue
specifically bound (βAR; hippocampus, CA fields, pyramidal layer, male, N=13): 1.74 ± 0.26 fmol [^125 I]iodopindolol/mg tissue
specifically bound (βAR; inferior temporal gyrus, external band, female, N=5): 1.21 ± 0.14 fmol [^125 I]iodopindolol/mg tissue
specifically bound (βAR; inferior temporal gyrus, external band, male, N=13): 1.04 ± 0.16 fmol [^125 I]iodopindolol/mg tissue
specifically bound (βAR; inferior temporal gyrus, internal band, female, N=6): 1.11 ± 0.17 fmol [^125 I]iodopindolol/mg tissue
specifically bound (βAR; inferior temporal gyrus, internal band, male, N=13): 1.14 ± 0.17 fmol [^125 I]iodopindolol/mg tissue
specifically bound (βAR; lateral occipitotemporal gyrus, external band, female, N=6): 0.93 ± 0.19 fmol [^125 I]iodopindolol/mg tissue
specifically bound (βAR; lateral occipitotemporal gyrus, external band, male, N=13): 0.94 ± 0.13 fmol [^125 I]iodopindolol/mg tissue
specifically bound (βAR; lateral occipitotemporal gyrus, internal band, female, N=6): 0.86 ± 0.11 fmol [^125 I]iodopindolol/mg tissue
specifically bound (βAR; lateral occipitotemporal gyrus, internal band, male, N=13): 1.02 ± 0.14 fmol [^125 I]iodopindolol/mg tissue
specifically bound (βAR; medial temporal gyrus, external band, female, N=6): 1.03 ± 0.15 fmol [^125 I]iodopindolol/mg tissue
specifically bound (βAR; medial temporal gyrus, external band, male, N=13): 1.05 ± 0.18 fmol [^125 I]iodopindolol/mg tissue
specifically bound (βAR; medial temporal gyrus, internal band, female, N=6): 1.06 ± 0.15 fmol [^125 I]iodopindolol/mg tissue
specifically bound (βAR; medial temporal gyrus, internal band, male, N=13): 1.18 ± 0.17 fmol [^125 I]iodopindolol/mg tissue
specifically bound (βAR; parahippocampal gyrus, external band, female, N=7): 1.22 ± 0.32 fmol [^125 I]iodopindolol/mg tissue
specifically bound (βAR; parahippocampal gyrus, external band, male, N=13): 1.07 ± 0.19 fmol [^125 I]iodopindolol/mg tissue
specifically bound (βAR; parahippocampal gyrus, internal band, female, N=6): 1.01 ± 0.23 fmol [^125 I]iodopindolol/mg tissue
specifically bound (βAR; parahippocampal gyrus, internal band, male, N=13): 0.95 ± 0.15 fmol [^125 I]iodopindolol/mg tissue
specifically bound (βAR; putamen, female, N=6): 1.05 ± 0.22 fmol [^125 I]iodopindolol/mg tissue
specifically bound (βAR; putamen, male, N=11): 1.24 ± 0.18 fmol [^125 I]iodopindolol/mg tissue
specifically bound (βAR; subiculum, female, N=5): 1.35 ± 0.33 fmol [^125 I]iodopindolol/mg tissue
specifically bound (βAR; subiculum, male, N=12): 1.36 ± 0.20 fmol [^125 I]iodopindolol/mg tissue
specifically bound (βAR; superior temporal gyrus, external band, female, N=6): 1.18 ± 0.18 fmol [^125 I]iodopindolol/mg tissue
specifically bound (βAR; superior temporal gyrus, external band, male, N=14): 1.13 ± 0.16 fmol [^125 I]iodopindolol/mg tissue
specifically bound (βAR; superior temporal gyrus, internal band, female, N=6): 1.04 ± 0.13 fmol [^125 I]iodopindolol/mg tissue
specifically bound (βAR; superior temporal gyrus, internal band, male, N=14): 1.18 ± 0.15 fmol [^125 I]iodopindolol/mg tissue
specifically bound (βAR; white matter, female, N=8): 0.47 ± 0.09 fmol [^125 I]iodopindolol/mg tissue
specifically bound (βAR; white matter, male, N=18): 0.59 ± 0.07 fmol [^125 I]iodopindolol/mg tissue
